The record followed here is patent US11918553B2, “Anti-oncogenic phytochemicals comprising substituted henicosanoic acid and henicosenoic acid” (Ostentus Therapeutics, Inc., priority 2022, dated 2024).

The structures appear in SMILES notation.

Assay in all cases: Apoptosis flow cytometry assay of HPLC fractions and synthesized compounds
For orientation: A flow cytometer gives signals particle by particle.

The subject of one assay is MV-4-11 cells. It is filed as cell-based, human. The protocol:
Apoptosis flow cytometry assays were performed essentially as described in Example 3. In one series of experiments, cultures MV-4-11 cells were grown to an appropriate density and approximately 20,000 cells/100 μL were seeded into wells of 96-well cell culture microplate. For each fraction, either 0.5 μL/mL of a fraction or 1 μL/mL of a fraction was then added to transferred cells for each cell line and incubated for 24 hours at 37° C. in 5% CO2 incubator. […] Cells were then assessed for apoptosis by an apoptosis flow cytometry assay employing with a fluorochrome-conjugated Annexin V and/or the fluorescent nucleic acid dye 4,6-diamidino-2-phenylindole (DAPI) (APC Annexin V, BD Bioscience, CA) following protocols provided by the manufacture. […] Aliquots were then incubated in the dark for 15 minutes with either 1) an Annexin-V-APC conjugate and DAPI, 1) an Annexin-V-APC conjugate; or 3) DAPI. An unstained aliquot was also set up as a negative control to define the basal level of apoptotic and dead cells. The percentage of cells that have been induced to undergo apoptosis is then determined by subtracting the percentage of apoptotic cells in the unstained aliquot from percentage of apoptotic cells in the stained aliquot. After staining, cells were washed in ice-cold PBS and resuspended in 300 μL of the Annexin V buffered solution, and analysis by flow cytometry using an LSR II flow cytometer (BD Bioscience, CA). […] Mean cell numbers between the OST-01 treated and control group was statistically analyzed by using unpaired, two-tailed Student's t test, with values from at least two independent experiments with triplicate determination. […]
Raw data obtained from these analyses were searched against a natural product databases, a flavonoid database, and other chemspider databases centered to plant natural products for putative identification. IN addition, based on the most abundant precursor ions detected in DI-MS, compounds were manually searched to assign putative identify of the abundant compounds. […]

In the next assay the test system is HL-60 cells. It is filed as cell-based, human. Conditions: HL-60, highest amount tested (50 μM).
Another assay has as its system THP-1 cells. It is filed as cell-based. As to conditions: THP-1, highest amount tested (200 μM), relative to ethanol or DMSO negative controls (FIG. 26B).

For `O=C(O)CCCCCCCCCCCCCCCCCCCCO`, the “increase in DAPI positive cells” value in the assay with MV-4-11 cells (MV-4-11, up to 30 μM, relative to ethanol negative control, decline at higher concentrations (FIG. 28A)) is listed as not below 8 fold; in the assay with HL-60 cells (relative to ethanol negative control (FIG. 28B)), “over 4 fold”. Further, the “increase in Annexin V positive cells” value in the assay on HL-60 cells (relative to ethanol or DMSO negative controls (FIG. 27B)) is “over 1.5 fold”.

`O=C(O)/C=C/CCCCCCCCCCCCCCCCCCO` [(2E)-21-Hydroxy-2-henicosenoic acid]: the “increase in Annexin V positive cells” value is on record as “over 2 fold” with MV-4-11 cells (MV-4-11, highest amount tested (50 μM), relative to ethanol negative control (FIG. 27A)); not below 55% in the assay with MV-4-11 cells (MV-4-11, highest amount tested (200 μM), relative to ethanol or DMSO negative controls (FIG. 26A)); not below 50% in the assay on THP-1 cells.
